Reference: paper PMC7411887, “New Paracyclophanylthiazoles with Anti-Leukemia Activity: Design, Synthesis, Molecular Docking, and Mechanistic Studies” (Molecules, 2020)

How the values were obtained:
Experiment in all cases: NCI single-dose screen (SRB)
Assay type in all cases: cell-based
NCI/ADR-RES = details: Homo sapiens; Ovarian Cancer NCI/ADR-RES; 10^−5 M; read-out: Growth inhibition percentage
Experimental: (§1) The methodology of the NCI anticancer screening was described in detail elsewhere (http://www.dtp.nci.nih.gov). […] Tested compounds were added to the culture at a single concentration (10^−5 M) and the cultures were incubated for 48 h. End-point determinations were made with a protein binding dye, SRB. Results for each tested compound were reported as the percentage growth of the treated cells when compared to the untreated control cells. The percentage growth was evaluated spectrophotometrically versus controls not treated with test agents. All experiments were repeated three times (Table 1).
(§2) Briefly, the protocol was performed on 60 human tumor cell lines derived from different nine neoplastic diseases. […] If the results obtained met selection criteria, then the compound was tested again on all 60 cell lines in 5× 10-fold dilutions with the top dose being 10^−4 M or 150 μg/mL. Detailed methods are described in the Supplementary Materials related to this article.
(§3) on their site (http://www.dtp.nci.nih.gov). But briefly, the protocol performed at sixty human
(§4) National Cancer Institute, Bethesda, USA. If the results obtained meet selection criteria, then the
(§5) 10-4 molar or 150 μg/mL. […]

NCI-H23 = details: Homo sapiens; Non-Small-Cell Lung Cancer NCI-H23; 10^−5 M; read-out: Growth inhibition percentage
Experimental: as §1, §2, §3, §4, §5

HOP-92 = details: Homo sapiens; Non-Small-Cell Lung Cancer HOP-92; 10^−5 M; read-out: Growth inhibition percentage
Experimental: as §1, §2, §3, §4, §5

LOX IMVI = details: Homo sapiens; Melanoma LOX IMVI; 10^−5 M; read-out: Growth inhibition percentage
Experimental: as §1, §2, §3, §4, §5

MALME-3M = details: Homo sapiens; Melanoma MALME-3M; 10^−5 M; read-out: Growth inhibition percentage
Experimental: as §1, §2, §3, §4, §5

HT29 = details: Homo sapiens, HT-29; Colon Cancer HT29; 10^−5 M; read-out: Growth inhibition percentage
Experimental: as §1, §2, §3, §4, §5

MDA-MB-231/ATCC = details: Homo sapiens; Breast Cancer MDA-MB-231/ATCC; 10^−5 M; read-out: Growth inhibition percentage
Experimental: as §1, §2, §3, §4, §5

MCF7 = details: Homo sapiens; Breast Cancer MCF7; 10^−5 M; read-out: Growth inhibition percentage
Experimental: as §1, §2, §3, §4, §5

OVCAR-8 = details: Homo sapiens; Ovarian Cancer OVCAR-8; 10^−5 M; read-out: Growth inhibition percentage
Experimental: as §1, §2, §3, §4, §5

HCC-2998 = details: Homo sapiens; Colon Cancer HCC-2998; 10^−5 M; read-out: Growth inhibition percentage
Experimental: as §1, §2, §3, §4, §5

K-562 = details: Homo sapiens, K562; Leukemia K-562; 10^−5 M; read-out: Growth inhibition percentage
Experimental: as §1, §2, §3, §4, §5

ACHN = details: Homo sapiens; Renal Cancer ACHN; 10^−5 M; read-out: Growth inhibition percentage
Experimental: as §1, §2, §3, §4, §5

HCT-116 = details: Homo sapiens; Colon Cancer HCT-116; 10^−5 M; read-out: Growth inhibition percentage
Experimental: as §1, §2, §3, §4, §5

SR = details: Homo sapiens; Leukemia SR; 10^−5 M; read-out: Growth inhibition percentage
Experimental: as §1, §2, §3, §4, §5

OVCAR-5 = details: Homo sapiens; Ovarian Cancer OVCAR-5; 10^−5 M; read-out: Growth inhibition percentage
Experimental: as §1, §2, §3, §4, §5

PC-3 = details: Homo sapiens; Prostate Cancer PC-3; 10^−5 M; read-out: Growth inhibition percentage
Experimental: as §1, §2, §3, §4, §5

U251 = details: Homo sapiens, U-251; CNS Cancer U251; 10^−5 M; read-out: Growth inhibition percentage
Experimental: as §1, §2, §3, §4, §5

A498 = details: Homo sapiens; Renal Cancer A498; 10^−5 M; read-out: Growth inhibition percentage
Experimental: as §1, §2, §3, §4, §5

SW-620 = details: Homo sapiens; Colon Cancer SW-620; 10^−5 M; read-out: Growth inhibition percentage
Experimental: as §1, §2, §3, §4, §5

IGROV1 = details: Homo sapiens, IGROV-1; Ovarian Cancer IGROV1; 10^−5 M; read-out: Growth inhibition percentage
Experimental: as §1, §2, §3, §4, §5

OVCAR-4 = details: Homo sapiens; Ovarian Cancer OVCAR-4; 10^−5 M; read-out: Growth inhibition percentage
Experimental: as §1, §2, §3, §4, §5

MOLT-4 = details: Homo sapiens; Leukemia MOLT-4; 10^−5 M; read-out: Growth inhibition percentage
Experimental: as §1, §2, §3, §4, §5

CAKI-1 = details: Homo sapiens; Renal Cancer CAKI-1; 10^−5 M; read-out: Growth inhibition percentage
Experimental: as §1, §2, §3, §4, §5

KM12 = details: Homo sapiens; Colon Cancer KM12; 10^−5 M; read-out: Growth inhibition percentage
Experimental: as §1, §2, §3, §4, §5

SN12C = details: Homo sapiens; Renal Cancer SN12C; 10^−5 M; read-out: Growth inhibition percentage
Experimental: as §1, §2, §3, §4, §5

SK-OV-3 = details: Homo sapiens; Ovarian Cancer SK-OV-3; 10^−5 M; read-out: Growth inhibition percentage
Experimental: as §1, §2, §3, §4, §5

TK-10 = details: Homo sapiens; Renal Cancer TK-10; 10^−5 M; read-out: Growth inhibition percentage
Experimental: as §1, §2, §3, §4, §5

CCRF-CEM = details: Homo sapiens; Leukemia CCRF-CEM; 10^−5 M; read-out: Growth inhibition percentage
Experimental: as §1, §2, §3, §4, §5

M14 = details: Homo sapiens; Melanoma M14; 10^−5 M; read-out: Growth inhibition percentage
Experimental: as §1, §2, §3, §4, §5

Structure (SMILES) | inhibition at 10 µM (NCI/ADR-RES) [%] | inhibition at 10 µM (NCI-H23) [%] | inhibition at 10 µM (HOP-92) [%] | inhibition at 10 µM (LOX IMVI) [%] | inhibition at 10 µM (MALME-3M) [%] | inhibition at 10 µM (HT29) [%] | inhibition at 10 µM (MDA-MB-231/ATCC) [%] | inhibition at 10 µM (MCF7) [%] | inhibition at 10 µM (OVCAR-8) [%] | inhibition at 10 µM (HCC-2998) [%] | inhibition at 10 µM (K-562) [%] | inhibition at 10 µM (ACHN) [%] | inhibition at 10 µM (HCT-116) [%] | inhibition at 10 µM (SR) [%] | inhibition at 10 µM (OVCAR-5) [%] | inhibition at 10 µM (PC-3) [%] | inhibition at 10 µM (U251) [%] | inhibition at 10 µM (A498) [%] | inhibition at 10 µM (SW-620) [%] | inhibition at 10 µM (IGROV1) [%] | further results
C=CCN1C(=O)C(=CC(=O)OC)SC1=NNC(=O)c1cc2ccc1CCc1ccc(cc1)CC2 [Compound 3d] | 10.5 | 11.8 | 18.6 | 21.2 | 7.56 | 54 | 2.27 | 48.5 | 11.8 | 0 | 48.1 | 12.2 | 46 | 98.2 | 3.9 | 51.6 | 18.2 | 12.1 | 55.5 | 10.8 | inhibition at 10 µM (OVCAR-4): 2.93%; inhibition at 10 µM (MOLT-4): 64.5%; inhibition at 10 µM (CAKI-1): 5.23%; inhibition at 10 µM (KM12): 18.4%; inhibition at 10 µM (SN12C): 13.1%; inhibition at 10 µM (SK-OV-3): 0%; inhibition at 10 µM (TK-10): 0%; inhibition at 10 µM (CCRF-CEM): 77.1%; inhibition at 10 µM (M14): 21.1%
COC(=O)C=C1SC(=NNC(=O)c2cc3ccc2CCc2ccc(cc2)CC3)N(Cc2ccccc2)C1=O [Compound 3b] | 29.6 | 22.6 | 24.5 | 93.8 | 11.6 | 87.6 | 43.2 | 67.3 | 28 | 20.5 | 81.1 | 34.2 | 50.5 | 115 | 34.6 | 82.2 | 45 | 53.9 | 81.8 | 57.7 | inhibition at 10 µM (OVCAR-4): 55.4%; inhibition at 10 µM (MOLT-4): 98.9%; inhibition at 10 µM (CAKI-1): 84.4%; inhibition at 10 µM (KM12): 34.9%; inhibition at 10 µM (SN12C): 38.8%; inhibition at 10 µM (SK-OV-3): 0%; inhibition at 10 µM (TK-10): 4.53%; inhibition at 10 µM (CCRF-CEM): 96.2%; inhibition at 10 µM (M14): 36.6%
CCN1C(=O)C(=CC(=O)OC)SC1=NNC(=O)c1cc2ccc1CCc1ccc(cc1)CC2 [Compound 3e] | 13.5 | 0.4 | 18.4 | 26.5 | 8.06 | 54.8 | 3.95 | 56.3 | 7.42 | 0 | 45.8 | 10.4 | 50.5 | 113 | 0 | 43.3 | 15.6 | 6.63 | 91.2 | 11.6 | inhibition at 10 µM (OVCAR-4): 10%; inhibition at 10 µM (MOLT-4): 62.9%; inhibition at 10 µM (CAKI-1): 0%; inhibition at 10 µM (KM12): 15%; inhibition at 10 µM (SN12C): 4.97%; inhibition at 10 µM (SK-OV-3): 0%; inhibition at 10 µM (TK-10): 6.5%; inhibition at 10 µM (CCRF-CEM): 66.1%; inhibition at 10 µM (M14): 12.8%
COC(=O)C=C1SC(=Nc2cccnc2)N(NC(=O)c2cc3ccc2CCc2ccc(cc2)CC3)C1=O [Compound 3c, Methyl (E)-2-((E)-3-[2.2]paracyclophanyl)amido-4-oxo-2-(pyridin-3-ylimino)-thiazolidin-5-ylidene)acetate] | 4.7 | 9.18 | 8.14 | 9.78 | 0 | 7.71 | 10.6 | 26.8 | 1.51 | 0 | 20.7 | 11 | 6.35 | 74.2 | 0.61 | 18.2 | 14.7 | 3.59 | 10.8 | 15.4 | inhibition at 10 µM (OVCAR-4): 7.76%; inhibition at 10 µM (MOLT-4): 21.9%; inhibition at 10 µM (CAKI-1): 4.78%; inhibition at 10 µM (KM12): 7.32%; inhibition at 10 µM (SN12C): 8.87%; inhibition at 10 µM (SK-OV-3): 0%; inhibition at 10 µM (TK-10): 0%; inhibition at 10 µM (CCRF-CEM): 31.3%; inhibition at 10 µM (M14): 7.99%
COC(=O)/C=C1/S/C(=N/NC(=O)c2cc3ccc2CCc2ccc(cc2)CC3)N(C2CC2)C1=O [Compound 3f] | 7.72 | 9.32 | 16.2 | 9.41 | 11.3 | 24 | 3.5 | 36.4 | 13.3 | 0 | 30.5 | 17.8 | 24.6 | 39.1 | 0 | 18.9 | 20.3 | 3.39 | 12.9 | 7.2 | inhibition at 10 µM (OVCAR-4): 10.5%; inhibition at 10 µM (MOLT-4): 55.6%; inhibition at 10 µM (CAKI-1): 24.5%; inhibition at 10 µM (KM12): 1.32%; inhibition at 10 µM (SN12C): 17.1%; inhibition at 10 µM (SK-OV-3): 0%; inhibition at 10 µM (TK-10): 0%; inhibition at 10 µM (CCRF-CEM): 41.4%; inhibition at 10 µM (M14): 19.2%
COC(=O)C=C1SC(=NNC(=O)c2cc3ccc2CCc2ccc(cc2)CC3)N(c2ccccc2)C1=O [Compound 3a] | 68.6 | 59.6 | 24.7 | 128 | 21.2 | 113 | 67.5 | 76.8 | 59.3 | 96.4 | 73 | 30.7 | 96 | 116 | 51.8 | 136 | 84.2 | 50.8 | 92.6 | 94 | inhibition at 10 µM (OVCAR-4): 70.6%; inhibition at 10 µM (MOLT-4): 97%; inhibition at 10 µM (CAKI-1): 94.7%; inhibition at 10 µM (KM12): 91.5%; inhibition at 10 µM (SN12C): 77.5%; inhibition at 10 µM (SK-OV-3): 0%; inhibition at 10 µM (TK-10): 84.8%; inhibition at 10 µM (CCRF-CEM): 87%; inhibition at 10 µM (M14): 46.9%
